Reference: ChEMBL document CHEMBL3864192, “Discovery and Optimization of Two Eis Inhibitor Families as Kanamycin Adjuvants against Drug-Resistant M. tuberculosis” (ACS Med Chem Lett, 2016)
The source made the active and inactive calls. The rule behind the calls is not given here.

Columns and labels:
N-acetyltransferase Eis = target: T1, N-acetyltransferase Eis (Mycobacterium tuberculosis (strain ATCC 25618 / H37Rv), UniProt P9WFK7); experiment: Inhibition of Mycobacterium tuberculosis H37Rv Eis expressed in Escherichia coli BL21(DE3) using Acetyl-CoA as substrate preincubated for 10 mins followed by substrate addition measured every 30 sec for 10 mins
T1 sequence (P9WFK7 whole entry): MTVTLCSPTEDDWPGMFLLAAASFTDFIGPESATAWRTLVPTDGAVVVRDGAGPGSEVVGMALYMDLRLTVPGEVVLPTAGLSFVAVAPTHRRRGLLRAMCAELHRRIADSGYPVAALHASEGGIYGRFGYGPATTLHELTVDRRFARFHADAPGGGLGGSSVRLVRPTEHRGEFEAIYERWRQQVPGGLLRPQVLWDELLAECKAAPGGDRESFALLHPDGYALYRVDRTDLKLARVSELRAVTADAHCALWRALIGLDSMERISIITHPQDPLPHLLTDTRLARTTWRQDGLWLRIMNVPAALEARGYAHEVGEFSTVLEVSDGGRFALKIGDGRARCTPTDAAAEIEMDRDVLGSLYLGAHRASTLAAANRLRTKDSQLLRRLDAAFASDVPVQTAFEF

[1] = tested on: Mycobacterium tuberculosis; experiment: Potentiation of kanamycin induced-antimicrobial activity against Mycobacterium tuberculosis H37Rv at 33.9 uM preincubated for 24 hrs followed by kanamycin addition measured after 6 days by Alamar blue assay; format: functional
[2] = tested on: Mycobacterium tuberculosis; experiment: Inhibition of Mycobacterium tuberculosis K204 Eis assessed as kanamycin MIC at 33.9 uM preincubated for 24 hrs followed by kanamycin addition measured after 6 days by Alamar blue assay (Rvb >= 10 ug/ml)
[3] = tested on: Mycobacterium tuberculosis; experiment: Potentiation of kanamycin induced-antimicrobial activity against Mycobacterium tuberculosis H37Rv at 100 uM preincubated for 24 hrs followed by kanamycin addition measured after 6 days by Alamar blue assay; format: functional
[4] = tested on: Mycobacterium tuberculosis; experiment: Inhibition of Mycobacterium tuberculosis K204 Eis assessed as kanamycin MIC at 100 uM preincubated for 24 hrs followed by kanamycin addition measured after 6 days by Alamar blue assay (Rvb >= 10 ug/ml)
[5] = tested on: Mycobacterium tuberculosis; experiment: Potentiation of kanamycin induced-antimicrobial activity against Mycobacterium tuberculosis H37Rv at 52.6 uM preincubated for 24 hrs followed by kanamycin addition measured after 6 days by Alamar blue assay; format: functional
[6] = tested on: Mycobacterium tuberculosis; experiment: Inhibition of Mycobacterium tuberculosis K204 Eis assessed as kanamycin MIC at 52.6 uM preincubated for 24 hrs followed by kanamycin addition measured after 6 days by Alamar blue assay (Rvb >= 10 ug/ml)
[7] = tested on: Mycobacterium tuberculosis; experiment: Potentiation of kanamycin induced-antimicrobial activity against Mycobacterium tuberculosis H37Rv at 1.5 uM preincubated for 24 hrs followed by kanamycin addition measured after 6 days by Alamar blue assay; format: functional
[8] = tested on: Mycobacterium tuberculosis; experiment: Inhibition of Mycobacterium tuberculosis K204 Eis assessed as kanamycin MIC at 1.5 uM preincubated for 24 hrs followed by kanamycin addition measured after 6 days by Alamar blue assay (Rvb >= 10 ug/ml)
[9] = target: T2, N-acetyltransferase Eis (Mycobacterium tuberculosis (strain ATCC 25618 / H37Rv)) (UniProt P9WFK7); experiment: Inhibition of Mycobacterium tuberculosis H37Rv Eis expressed in Escherichia coli BL21(DE3) at 20 uM using Acetyl-CoA as substrate after 5 mins by HTS assay
T2 sequence (whole entry): T1 sequence (P9WFK7 whole entry)

[10] = tested on: Mycobacterium tuberculosis; experiment: Potentiation of kanamycin induced-antimicrobial activity against Mycobacterium tuberculosis H37Rv at 8.9 uM preincubated for 24 hrs followed by kanamycin addition measured after 6 days by Alamar blue assay; format: functional
[11] = tested on: Mycobacterium tuberculosis; experiment: Inhibition of Mycobacterium tuberculosis K204 Eis assessed as kanamycin MIC at 8.9 uM preincubated for 24 hrs followed by kanamycin addition measured after 6 days by Alamar blue assay (Rvb >= 10 ug/ml)
[12] = tested on: Mycobacterium tuberculosis; experiment: Potentiation of kanamycin induced-antimicrobial activity against Mycobacterium tuberculosis H37Rv at 25.1 uM preincubated for 24 hrs followed by kanamycin addition measured after 6 days by Alamar blue assay; format: functional
[13] = tested on: Mycobacterium tuberculosis; experiment: Inhibition of Mycobacterium tuberculosis K204 Eis assessed as kanamycin MIC at 25.1 uM preincubated for 24 hrs followed by kanamycin addition measured after 6 days by Alamar blue assay (Rvb >= 10 ug/ml)
[14] = tested on: Mycobacterium tuberculosis; experiment: Potentiation of kanamycin induced-antimicrobial activity against Mycobacterium tuberculosis H37Rv at 54.2 uM preincubated for 24 hrs followed by kanamycin addition measured after 6 days by Alamar blue assay; format: functional
[15] = tested on: Mycobacterium tuberculosis; experiment: Inhibition of Mycobacterium tuberculosis K204 Eis assessed as kanamycin MIC at 54.2 uM preincubated for 24 hrs followed by kanamycin addition measured after 6 days by Alamar blue assay (Rvb >= 10 ug/ml)
[16] = tested on: Mycobacterium tuberculosis; experiment: Potentiation of kanamycin induced-antimicrobial activity against Mycobacterium tuberculosis H37Rv at 29.7 uM preincubated for 24 hrs followed by kanamycin addition measured after 6 days by Alamar blue assay; format: functional
[17] = tested on: Mycobacterium tuberculosis; experiment: Inhibition of Mycobacterium tuberculosis K204 Eis assessed as kanamycin MIC at 29.7 uM preincubated for 24 hrs followed by kanamycin addition measured after 6 days by Alamar blue assay (Rvb >= 10 ug/ml)
[18] = tested on: Mycobacterium tuberculosis; experiment: Potentiation of kanamycin induced-antimicrobial activity against Mycobacterium tuberculosis H37Rv at 32.6 uM preincubated for 24 hrs followed by kanamycin addition measured after 6 days by Alamar blue assay; format: functional
[19] = tested on: Mycobacterium tuberculosis; experiment: Inhibition of Mycobacterium tuberculosis K204 Eis assessed as kanamycin MIC at 32.6 uM preincubated for 24 hrs followed by kanamycin addition measured after 6 days by Alamar blue assay (Rvb >= 10 ug/ml)
[20] = tested on: Mycobacterium tuberculosis; experiment: Potentiation of kanamycin induced-antimicrobial activity against Mycobacterium tuberculosis H37Rv at 64.5 uM preincubated for 24 hrs followed by kanamycin addition measured after 6 days by Alamar blue assay; format: functional
[21] = tested on: Mycobacterium tuberculosis; experiment: Inhibition of Mycobacterium tuberculosis K204 Eis assessed as kanamycin MIC at 64.5 uM preincubated for 24 hrs followed by kanamycin addition measured after 6 days by Alamar blue assay (Rvb >= 10 ug/ml)
[22] = tested on: Mycobacterium tuberculosis; experiment: Potentiation of kanamycin induced-antimicrobial activity against Mycobacterium tuberculosis H37Rv at 15.5 uM preincubated for 24 hrs followed by kanamycin addition measured after 6 days by Alamar blue assay; format: functional
[23] = tested on: Mycobacterium tuberculosis; experiment: Inhibition of Mycobacterium tuberculosis K204 Eis assessed as kanamycin MIC at 15.5 uM preincubated for 24 hrs followed by kanamycin addition measured after 6 days by Alamar blue assay (Rvb >= 10 ug/ml)

COC(=O)c1cc2occc2n1CC(=O)c1ccc(F)cc1
IC50 (N-acetyltransferase Eis): 300 nM | MIC [1]: ≤ 1.25 µg/mL | MIC [2]: 10 µg/mL

O=C(CN1C(=O)C2(OCCO2)c2ccccc21)c1cccc([N+](=O)[O-])c1
MIC [3]: ≤ 1.25 µg/mL | MIC [4]: 5 to 10 µg/mL

COC(=O)c1cc2occc2n1CC(=O)C(C)(C)C
IC50 (N-acetyltransferase Eis): > 200000 nM | MIC [3]: ≤ 1.25 µg/mL | MIC [4]: > 10 µg/mL

COC(=O)c1cc2occc2n1CC(=O)c1cccc(Br)c1
IC50 (N-acetyltransferase Eis): 500 nM | MIC [5]: ≤ 1.25 µg/mL | MIC [6]: > 10 µg/mL

CCC(=O)Cn1c(C(=O)OC)cc2occc21
IC50 (N-acetyltransferase Eis): > 200000 nM | MIC [3]: ≤ 1.25 µg/mL | MIC [4]: > 10 µg/mL

O=C(CN1C(=O)C2(OCCO2)c2ccccc21)c1cccc(Cl)c1
MIC [7]: ≤ 1.25 µg/mL | MIC [8]: > 10 µg/mL

O=C(CN1C(=O)C2(OCCO2)c2ccccc21)c1ccc(F)cc1
IC50 (N-acetyltransferase Eis): 90 nM | inhibition [9]: Active | MIC [10]: ≤ 1.25 µg/mL | MIC [11]: 5 µg/mL

COC(=O)c1cc2occc2n1CC(=O)c1ccccc1F
MIC [3]: ≤ 1.25 µg/mL | MIC [4]: 10 µg/mL

O=C(CN1C(=O)C2(OCCO2)c2ccccc21)c1ccc(Cl)cc1
IC50 (N-acetyltransferase Eis): 2200 nM | MIC [3]: ≤ 1.25 µg/mL | MIC [4]: 5 to 10 µg/mL | inhibition [9]: Active

CC(C)(C)C(=O)CN1C(=O)C2(OCCO2)c2ccccc21
IC50 (N-acetyltransferase Eis): > 200000 nM | MIC [3]: ≤ 1.25 µg/mL | MIC [4]: > 10 µg/mL

COC(=O)c1cc2occc2n1CC(=O)c1cccc(OC)c1
IC50 (N-acetyltransferase Eis): > 200000 nM | MIC [3]: ≤ 1.25 µg/mL | MIC [4]: > 10 µg/mL

COC(=O)c1cc2occc2n1CC(=O)c1cccc(Cl)c1
MIC [12]: ≤ 1.25 µg/mL | MIC [13]: > 10 µg/mL

O=C(CN1C(=O)C2(OCCO2)c2ccccc21)c1cccc(Br)c1
MIC [14]: ≤ 1.25 µg/mL | MIC [15]: 5 to 10 µg/mL

Cc1ccc(C(=O)CN2C(=O)C3(OCCO3)c3ccccc32)cc1
MIC [3]: ≤ 1.25 µg/mL | MIC [4]: 5 to 10 µg/mL

O=C(CN1C(=O)C2(OCCO2)c2ccccc21)c1ccc(Br)cc1
IC50 (N-acetyltransferase Eis): > 200000 nM | MIC [3]: ≤ 1.25 µg/mL | MIC [4]: > 10 µg/mL | inhibition [9]: Active

COC(=O)c1cc2occc2n1CC(=O)c1ccc(Br)cc1
MIC [3]: ≤ 1.25 µg/mL | MIC [4]: > 10 µg/mL

COC(=O)c1cc2occc2n1CC(=O)c1ccc(C)cc1
MIC [3]: ≤ 1.25 µg/mL | MIC [4]: 5 to 10 µg/mL

COC(=O)c1cc2occc2n1CC(=O)c1ccccc1
MIC [3]: ≤ 1.25 µg/mL | MIC [4]: 5 to 10 µg/mL | inhibition [9]: Active

O=C(CN1C(=O)C2(OCCO2)c2ccccc21)c1cccc(F)c1
MIC [16]: ≤ 1.25 µg/mL | MIC [17]: 2.5 to 5 µg/mL

O=C(CN1C(=O)C2(OCCO2)c2ccccc21)c1ccccc1
IC50 (N-acetyltransferase Eis): 330 nM | MIC [18]: ≤ 1.25 µg/mL | MIC [19]: 5 µg/mL

CCC(=O)CN1C(=O)C2(OCCO2)c2ccccc21
IC50 (N-acetyltransferase Eis): > 200000 nM | MIC [3]: ≤ 1.25 µg/mL | MIC [4]: > 10 µg/mL

O=C(CN1C(=O)C2(OCCO2)c2ccccc21)c1ccccc1F
MIC [3]: ≤ 1.25 µg/mL | MIC [4]: 10 µg/mL

COC(=O)c1cc2occc2n1CC(=O)c1ccc2ccccc2c1
MIC [3]: ≤ 1.25 µg/mL | MIC [4]: 10 µg/mL

COC(=O)c1cc2occc2n1CC(=O)c1ccc(Cl)cc1
MIC [20]: ≤ 1.25 µg/mL | MIC [21]: > 10 µg/mL

COC(=O)c1cc2occc2n1CC(=O)c1cccc(F)c1
MIC [22]: ≤ 1.25 µg/mL | MIC [23]: 10 µg/mL

COc1cccc(C(=O)CN2C(=O)C3(OCCO3)c3ccccc32)c1
MIC [3]: ≤ 1.25 µg/mL | MIC [4]: > 10 µg/mL

O=C(CN1C(=O)C2(OCCO2)c2ccccc21)c1ccc2ccccc2c1
MIC [3]: ≤ 1.25 µg/mL | MIC [4]: 10 µg/mL
